Results from patent US20140024638A1, “TREATMENT OF COGNITIVE DYSFUNCTION IN SCHIZOPHRENIA” (TARGACEPT, INC., priority 2011, published 2014).
Entries after “also recorded” stand apart in the source; their conditions may differ.

Legend:
Assay type in all cases: in vivo, human
[1] = system: patients with schizophrenia; experiment: Clinical Global Impression - Global Improvement (CGI-I, CGI Global Change), Phase 2 trial; conditions: for CGI Global Change: Adjusted Mean / CGI Global Change: Mean Difference ± SE between TC-5619 and Placebo (Placebo-TC5619): All Patients; for CGI-I: Mean (SE): tobacco users; for CGI-I: Mean (SEM): total population
Protocol: (§1) The double blind, placebo controlled Phase 2 trial was conducted at 7 sites in the United States and 12 sites in India. […] Of the randomized patients, approximately 69% were male and approximately 46% were users of tobacco products. […] The primary efficacy outcome measure was GMLT, and the trial included a number of other scales as secondary efficacy outcome measures.

[2] = system: patients with schizophrenia; experiment: CogState Schizophrenia Battery Composite score, Phase 2 trial; conditions: for CogState Composite score: Mean (SE): tobacco users meeting data integrity criteria; for CogState Composite score: Mean (SEM): total population, subjects meeting data integrity criteria
Protocol: As provided in the above-referenced brochure, CogState is a provider of cognitive testing products and services that predominantly caters to the global pharmaceutical industry. The Schizophrenia Cognitive Test Battery covers all domains identified by MATRICS initiative; requires around 35 minutes for administration; is sensitive to the effects of novel compounds and licensed medication; is sensitive to the effects of medication in groups or individual patients; and the outcome measures are related to functional status.
as §1

[3] = system: patients with schizophrenia; experiment: Phase 2 trial, safety and tolerability
Protocol: as §1

SMILES: O=C(N[C@@H]1C2CCN(CC2)[C@H]1Cc1cccnc1)c1cc2ccccc2o1 (single isomer, unassigned) [TC-5619]
- CGI Global Change: Adjusted Mean ([1]; Week 1, 1 mg daily, SE 0.15, placebo 3.80): 3.77
- CGI Global Change: Mean Difference ± SE between TC-5619 and Placebo (Placebo-TC5619) ([1]; Week 1, 1 mg daily, one-sided 90% CI (−0.06, ∞), one-sided P 0.3434): 0.03 ± 0.07
- CGI Global Change: Adjusted Mean ([1]; Week 4, 1 mg daily, SE 0.16, placebo 3.64): 3.49
- CGI Global Change: Mean Difference ± SE between TC-5619 and Placebo (Placebo-TC5619) ([1]; Week 4, 1 mg daily, one-sided 90% CI (0.04, ∞), one-sided P 0.0485): 0.15 ± 0.09
- CGI Global Change: Adjusted Mean ([1]; Week 8, 5 mg daily, SE 0.16, placebo 3.30): 3.22
- CGI Global Change: Mean Difference ± SE between TC-5619 and Placebo (Placebo-TC5619) ([1]; Week 8, 5 mg daily, one-sided 90% CI (−0.07, ∞), one-sided P 0.2533): 0.08 ± 0.12
- CGI Global Change: Adjusted Mean ([1]; Week 12, 25 mg daily, SE 0.17, placebo 3.18): 3.03
- CGI Global Change: Mean Difference ± SE between TC-5619 and Placebo (Placebo-TC5619) ([1]; Week 12, 25 mg daily, one-sided 90% CI (−0.03, ∞), one-sided P 0.1502): 0.15 ± 0.14
- Clinical Global Impression - Global Improvement, result in words ([1]; secondary outcome measure, investigator assessment of overall response): encouraging efficacy signals
- CGI-I: Mean (SE) ([1]; Week 4, 1 mg daily, 1-tailed p = 0.047): 0.25 (0.14); p = 0.047
- CGI-I: Mean (SE) ([1]; Week 8, 5 mg daily, 1-tailed p = 0.075): 0.24 (0.16); p = 0.075
- CGI-I: Mean (SE) ([1]; Week 12, 25 mg daily, 1-tailed p = 0.189): 0.18 (0.20); p = 0.189
- CGI-I: Mean (SEM) ([1]; Week 4, 1 mg daily, 1-tailed p = 0.049): 0.15 (0.09); p = 0.049
- CGI-I: Mean (SEM) ([1]; Week 8, 5 mg daily, 1-tailed p = 0.253): 0.08 (0.12); p = 0.253
- CGI-I: Mean (SEM) ([1]; Week 12, 25 mg daily, 1-tailed p = 0.150): 0.15 (0.14); p = 0.150
- CogState composite score, result in words ([2]; in vivo): statistically significant results of improvement
- CogState Composite score: Mean (SE) ([2]; Week 4, 1 mg daily, 1-tailed p = 0.471): 0.007 0.099); p = 0.471
- CogState Composite score: Mean (SE) ([2]; Week 8, 5 mg daily, 1-tailed p = 0.614): −0.029 (0.101); p = 0.614
- CogState Composite score: Mean (SE) ([2]; Week 12, 25 mg daily, 1-tailed p = 0.098): 0.129 0.100); p = 0.098 ^
- CogState Composite score: Mean (SEM) ([2]; Week 4, 1 mg daily, 1-tailed p = 0.838): −0.066 (0.066); p = 0.838
- CogState Composite score: Mean (SEM) ([2]; Week 8, 5 mg daily, 1-tailed p = 0.821): −0.062 .068); p = 0.821^
- CogState Composite score: Mean (SEM) ([2]; Week 12, 25 mg daily, 1-tailed p = 0.326): 0.030 0.067); p = 0.326 ^
- discontinuations due to adverse events, difference to placebo dose group ([3]; Phase 2 trial): no clinically significant difference
- tolerability ([3]; Phase 2 trial, 12 weeks, 1/5/25 mg daily, listed as (2S,3R)—N-(2-((3-pyridinyl)methyl)-1-azabicyclo[2.2.2]oct-3-yl)benzofuran-2-carb): well tolerated; also recorded: favorable tolerability profile
- serious adverse events in the dose group ([3]; one also in placebo dose group, considered by the investigator as not drug related): one
- nausea (most frequent adverse event more common than in placebo cohort) ([3]; placebo 0%, mild to moderate in severity, never led to patient dropout): 5%
